{"source": "patent US20020165267A1", "about": "(priority 2001, published 2002)", "key": {"[1]": {"conditions": "humans; set by the FDA; cited from earlier work"}, "[2]": {"system": "Bacillus thuringiensis ATCC55055; Bacillus subtilis 1270", "assay": "Agar diffusion test, clear zones of growth inhibition around wells", "type": "cell-based", "conditions": "Phloxine B 100 μg/ml; 50 μl per well; 37° C., 16 hours", "description": "Sensitivity of bacteria to the commercially available Phloxine B measured by agar diffusion test. Principle of this microbiological assay: The bacteria were grown on Brain Heart Infusion (BHI) broth. Growth was analyzed by measuring turbidity with a spectrophotometer. During the logarithmic phase (OD of 0 3 at 600 nm), 200 μl of the bacterial culture was spread over the surface of an agar plate with a bent glass rod. Fifty μl of various concentrations of Phloxine B (200, 100, 50, 25, and 12.5 μg/ml diluted in the BHI broth) were added to the wells. The plate was then transferred to an incubator at 37° C. the appearance of clear zones around the wells after 16 hours, indicating inhibition of bacterial growth, was noted."}, "[3]": {"system": "B. mycoides, B. thuringiensis, and B. subtilis", "type": "cell-based"}}}
{"substance": "2′,4′,5′,7′-tetrachlorofluorecein disodium salt [Phloxine B]", "values": [{"measurement": "acceptable daily intake (ADI)", "setting": "[1]", "result": 1.25, "unit": "mg/kg"}, {"measurement": "size of clear zones compared with chloramphenicol", "setting": "[2]", "result": "half the inhibition zones observed with chloramphenicol at 200 μg/ml"}, {"measurement": "reduction of the number of Colony-Forming Units", "setting": "[3]; 100 μg/ml, printed also as factor of 100", "result": "more than two logs"}, {"measurement": "inhibition of bacterial growth", "setting": "[3]; 100, 75, 50, 25 μg/ml added in logarithmic growth phase, BHI broth", "result": "dose-dependent manner"}, {"measurement": "antibiotic activity on bacteria", "setting": "[3]; B. mycoides, B. thuringiensis, B. subtilis", "result": "very good antibiotic activity"}, {"measurement": "decrease of bacterial count", "setting": "[3]; dye added at 100 μg/ml, in minutes", "result": 3, "unit": "logs"}]}
